Experimental findings from publication PMC8592027, “Structure-Guided Design of D-Galactal Derivatives with High Affinity and Selectivity for the Galectin-8 N-Terminal Domain” (ACS Medicinal Chemistry Letters, 2021) are described below.

Holding throughout (type): binding
In assay [1] the target is T1, galectin-3 (Homo sapiens, UniProt P17931).
T1 construct: made in house
Kind of assay: Competitive fluorescence polarization assay, galectin-3. Conditions: mean ± SEM of n = 4–8. The procedure: (§1) 1. Competitive fluorescence polarization experiments:
(§2) Human galectins -1, -3, -4N, -4C, -7, -8N, -9N, and -9C were expressed and purified as previously described 30,41. Fluorescence polarisation experiments were performed using the PHERAstar FS plat e reader (software version 2.10 R3), and the fluorescence anisotropy of fluorescein tagged probes was measured by excitation at 485 nm and emission at 520 nm. The specific conditions for galectins -1, -3, -4N, -4C, -7, -8N, -9N, and -9C were kept as report ed30,41,42. The synthesised compounds were dissolved in pure DMSO at 20 mM concentration and diluted in PBS to 3-6 different concentrations, and each concentration was tested in duplicate. The highest inhibitor concentrations tested were 1.5 mM. The
A general note: Fluorescence polarisation rises when a labelled molecule tumbles more slowly, as on binding a larger partner.

Assay [2] deals with T2, galectin-4N (N-terminal domain) (Homo sapiens, UniProt P56470).
T2 construct: galectins (N = N-terminal domain, C = C-terminal domain); made in house
T2 sequence (P56470 19-150 limits assumed): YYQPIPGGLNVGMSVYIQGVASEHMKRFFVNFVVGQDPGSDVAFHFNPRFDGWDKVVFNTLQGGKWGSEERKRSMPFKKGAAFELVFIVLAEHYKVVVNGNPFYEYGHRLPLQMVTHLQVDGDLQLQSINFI
Kind of assay: Competitive fluorescence polarization assay, galectin-4N. Conditions: mean ± SEM of n = 4–8. Here is the method: as §1, §2

The target in assay [3] is T3, galectin-8N (galectin-8 N-terminal domain) (Homo sapiens, UniProt O00214).
T3 construct: selective ligand for the galectin-8 N-terminal domain (galectin-8N); made in house
T3 sequence (O00214 19-152 limits assumed): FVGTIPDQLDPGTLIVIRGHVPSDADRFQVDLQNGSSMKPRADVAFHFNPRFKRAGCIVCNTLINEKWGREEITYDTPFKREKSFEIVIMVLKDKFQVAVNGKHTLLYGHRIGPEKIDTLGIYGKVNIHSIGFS
Kind of assay: Competitive fluorescence polarization assay, galectin-8N. The procedure:
All synthesized D-galactal derivatives had higher binding affinities for galectin-8N than D-galactal 3.
as §1, §2

Assay [4] concerns the target T4, galectin-9C (C-terminal domain) (Homo sapiens, UniProt O00182).
T4 construct: galectins (N = N-terminal domain, C = C-terminal domain); made in house
Kind of assay: Competitive fluorescence polarization assay, galectin-9C. Conditions: mean ± SEM of n = 4–8. The procedure: as §1, §2

T1 sequence (P17931 whole entry): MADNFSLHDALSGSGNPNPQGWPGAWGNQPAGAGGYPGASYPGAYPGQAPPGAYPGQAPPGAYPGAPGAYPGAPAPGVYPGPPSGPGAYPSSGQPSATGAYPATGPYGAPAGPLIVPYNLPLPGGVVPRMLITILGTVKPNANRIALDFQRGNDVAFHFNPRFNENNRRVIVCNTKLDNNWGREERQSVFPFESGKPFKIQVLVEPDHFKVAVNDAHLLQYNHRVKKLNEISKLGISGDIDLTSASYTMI
T4 sequence (O00182 227-355 limits assumed): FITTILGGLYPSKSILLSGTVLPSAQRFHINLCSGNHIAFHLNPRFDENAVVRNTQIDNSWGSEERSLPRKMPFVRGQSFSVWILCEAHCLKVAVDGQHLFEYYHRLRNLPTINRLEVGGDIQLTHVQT

The term Kd denotes the constant that tells how readily two partners part at equilibrium. Read a low Kd as tighter binding. In the case of `Cn1c(CO[C@@H]2C=CO[C@H](CO)[C@@H]2O)nc2ccc(C(=O)O)cc21` [6a], the dissociation constant (Kd) is 690 ± 30 µM in assay [1], 1400 ± 30 µM in assay [2], 48 ± 4 µM in assay [3] (mean ± SEM of n = 4–8) and greater than 1500 µM in assay [4]. Further, the “selectivity for galectin-8N over galectin-1” value in assay [3] (ratio of Kd values) came to 27 fold. For the same compound, in assay [3] (ratio of Kd values), the “selectivity for galectin-8N over galectin-3” value was 15 fold.
